From patent US12396995B2, “Substituted 4-aminoisoindoline-1,3-dione compounds and second active agents for combined use” (Celgene Corporation, priority 2019, dated 2025)

What was measured:
[1] = test system: WSU-DLCL2 DLBCL xenograft tumors; experiment: WSU-DLCL2 (DLBCL) xenograft model, Compound 1 alone and with 5-azacytidine; format: in vivo, female SCID mice
Experimental: Anti-tumor activity of Compound 1 alone and in combination with 5-azacytidine was studies in WSU-DLCL2 (DLBCL) xenograft model. Compound 1 (1 mg/kg) was administered once daily for 5 consecutive days followed by 2 days off (5 D on/2 D off) and 5-azacytidine (1 mg/kg) was administered once daily (QD). Compound 1 (1 mg/kg, 5 D on/2 D off) and 5-azacytidine (1 mg/kg, QD) inhibited WSU-DLCL2 DLBCL tumor growth.
Methods: Xenograft study was conducted with female SCID mice bearing WSU-DLCL2 DLBCL xenograft tumors. Female SCID mice were inoculated subcutaneously with WSU-DLCL2 cells in the flank region above the right hind leg. Following inoculation of animals, the tumors were allowed to grow to approximately 200 mm^3 prior to randomization. On day 14 following tumor cell inoculation, the mice bearing WSU-DLCL2 tumors ranging between 150 and 250 mm^3 were pooled together and randomized into various treatment groups. Compound 1 was formulated in 0.5% Methyl Cellulose, 0.25% Tween 80 and 50 mM Citrate pH 3 in water. 5-Azacytidine was formulated in 0.9% saline. Compound 1 (1 mg/kg) was orally administered with three cycles of once daily for 5 consecutive days followed by 2 days off starting from day 14 after tumor cell inoculation. […] Tumors were measured twice a week using calipers and tumor volumes were calculated using the formula of W^2×L/2. […]

[2] = test system: DB DLBCL xenograft tumors; experiment: DB (DLBCL) xenograft model, Compound 1 alone and with tazemetostat; format: in vivo, female SCID mice; conditions: for tumor volume reduction: 5 D on/2 D off
Experimental: Anti-tumor activity of Compound 1 alone and in combination with tazemetostat was studied in DB (DLBCL) xenograft model. Compound 1 (3, 10 or 30 mg/kg) was administered once daily for 5 consecutive days followed by 2 days off (5 D on/2 D off) and tazemetostat (200 mg/kg) was administered twice daily (BID).
Methods: Xenograft study was conducted with female SCID mice bearing DB DLBCL xenograft tumors. Female SCID mice were inoculated subcutaneously with DB cells in the flank region above the right hind leg. Following inoculation of animals, the tumors were allowed to grow to approximately 200 mm^3 prior to randomization. On day 33 following tumor cell inoculation, the mice bearing DB tumors ranging between 150 and 250 mm^3 were pooled together and randomized into various treatment groups. Compound 1 was formulated in 0.5% Methyl Cellulose, 0.25% Tween 80 and 50 mM Citrate pH 3 in water. Tazemetostat was formulated in CMC-Tween. Compound 1 (3, 10 or 30 mg/kg) was orally administered with three cycles of once daily for 5 consecutive days followed by 2 days off starting from day 33 after tumor cell inoculation. Tazemetostat (200 mg/kg) was orally administered twice day (BID) for three weeks. In combination group the animals received Compound 1 (3, 10 or 30 mg/kg, 5 D on/2 D off) and tazemetostat (200 mg/kg, BID) simultaneously for three weeks starting from day 33 after tumor cell inoculation. Tumors were measured twice a week using calipers and tumor volumes were calculated using the formula of W^2×L/2. Statistical analysis was performed using a one-way or 2-way analysis of variance (ANOVA). Synergy calculations were performed using fractional product method.

[3] = test system: panel of DLBCL cell lines; experiment: CellTiter-Glo proliferation, Compound 1 with BET inhibitor Compound B; format: cell-based; conditions: Combinations of Compound B and Compound 1; 40 DLBCL cell lines; 5 days
Experimental: A panel of DLBCL cell lines in the following table were treated with single-agent Compound 1, single agent Compound B (a BET inhibitor), along with the combinations of Compound 1 and Compound B, at a concentration range to investigate the antiproliferative activities.
Experimental procedures: CellTiter-Glo (CTG), a luminescent dye that measures adenosine-5′-triphosphate (ATP), was used to quantify the cell proliferation across a panel of 40 unique DLBCL cell lines. Single agents and combinations were pre-spotted into 384-well plates (diluted in final dimethyl sulfoxide [DMSO] concentration of 0.1% for a maximal volume of 50 μL). […]
For each DLBCL cell line, 50 μL of cell suspension at their respective seeding densities of 0.025 to 0.2×10^6 cells per mL were added to 384-well plates containing the compounds. The effect of the single agents and combinations on the proliferation/viability of cells was assessed after 5 days of incubation. Twenty-five microliters of CTG per well was then dispensed to the cell suspension, and ATP released by viable cells was measured after a 30-minute incubation as relative luminescence units (RLU) using an EnVision plate reader (PerkinElmer, Covina, CA). […]

Structure (SMILES): O=C1CC[C@H](N2C(=O)c3cccc(NCc4ccc(CN5CC(N6CCOCC6)C5)cc4F)c3C2=O)C(=O)N1 [Compound 1, (S)-2-(2,6-dioxopiperidin-3-yl)-4-((2-fluoro-4-((3-morpholinoazetidin-1-yl)methyl)benzyl)amino)isoindoline-1,3-dione]
- combination antitumor activity (fractional product method) ([1]; Compound 1 1 mg/kg and 5-azacytidine 1 mg/kg): synergistic
- tumor volume reduction compared to vehicle control ([1]; Compound 1 1 mg/kg in combination with 5-azacytidine 1 mg/kg): 74%
- tumor volume reduction compared with vehicle control ([2]; Compound 1 3 mg/kg in combination with tazemetostat 200 mg/kg): 99.1%
- tumor volume reduction compared with vehicle control ([2]; Compound 1 10 mg/kg in combination with tazemetostat 200 mg/kg): 100%
- tumor volume reduction compared with vehicle control ([2]; Compound 1 30 mg/kg in combination with tazemetostat 200 mg/kg): 100%
- combination antitumor activity (fractional product method) ([2]; Compound 1 at 3, 10 or 30 mg/kg and tazemetostat at 200 mg/kg): synergistic
- tumor volume reduction ([2]; single agent Compound 1 3 mg/kg oral): 16.9%
- tumor volume reduction ([2]; single agent Compound 1 10 mg/kg oral): 41.11%
- tumor volume reduction ([2]; single agent Compound 1 30 mg/kg oral): 48.9%
- animals tumor free ([2]; tazemetostat in combination with 3 mg/kg Compound 1): 90%
- animals tumor free ([2]; tazemetostat in combination with 10 mg/kg Compound 1): 100%
- animals tumor free ([2]; tazemetostat in combination with 30 mg/kg Compound 1): 100%
- combination effect on proliferation (Bliss independence and HSA models) [3]: synergy and additivity in the majority of DLBCL cell lines
